Assay results: the supplement of paper PMC11997997

Experiments:
[1] = system: murine bone marrow-derived macrophages; assay: area under cytotoxicity dose-response curve (AUC (% cytotoxicity x dose, relative)); higher = more cytotoxic; conditions: duration: 6 days; dose range: 0.13-80 uM, 8 points
How it was run: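 Values are the area under the cytotoxicity dose–response curve, calculated with GraphPad Prism version 10. Primary murine bone marrow-derived macrophages were exposed to final concentrations of 80–0.13 μM for 6 days, and viability was read by CellTiter-Glo luminescence with normalisation to vehicle and positive control wells.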

[2] = system: Mycobacterium tuberculosis CDC1551 (intracellular, in murine BMDM); assay: area under intracellular growth-inhibition dose-response curve (AUC (% inhibition x dose, relative)); higher = more potent; conditions: duration: 6 days; dose range: 0.13-80 uM, 8 points
How it was run: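 The value is the area under the growth-inhibition dose–response curve, calculated in GraphPad Prism. Primary murine bone marrow-derived macrophages were seeded in 384-well opaque plates and, 24 h later, infected for 1 h with luciferase-expressing M. tuberculosis CDC1551 at multiplicity of infection 1. Cells were then exposed for 6 days to an 8-dose, 2.5-fold series (final 80–0.13 μM). Growth was read with the Bright-Glo luciferin assay and normalised to a reference drug control and to the lowest-concentration wells.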

Compound	area under cytotoxicity dose-response curve [1]	area under intracellular growth-inhibition dose-response curve [2]
CN(C)c1nc(-c2ccccn2)nnc1-c1ccccc1	120	149
CCOC(=O)c1cc(-c2csc(-c3ccc(C(C)(C)C)cc3)n2)on1	79.1	231
COc1cc(/C=N/NC(=O)c2ccncc2)ccc1OCc1cnc(Cl)s1	3.56	219
O=C(Nc1ccc(N2CCN(C(=O)c3ccccc3)CC2)cc1)c1ccc([N+](=O)[O-])o1	24.1	127
O=C(c1cccc(C(F)(F)F)c1)N1CCCC1	< 0	232
NC(=S)c1cn(C2OC(CO)C(O)C2O)c2ncnc(N)c12 (stereo unspecified)	36.6	70.2
O=C(N/N=C/c1ccc([N+](=O)[O-])o1)C(O)c1ccccc1 (stereo unspecified)	72.7	123
O=C(CSc1ccccc1F)NNC(=O)c1ccncc1	38.8	230
CCCN(CCC)CC(O)Cn1cc(/C=C/C(=O)c2cccs2)c2ccccc21 (stereo unspecified)	2.01	231
Cc1[nH]c2ccccc2c1/C=N/NC(N)=S	102	131
Cc1ccc2sc(N3CCN(C(=O)c4ccc([N+](=O)[O-])o4)CC3)nc2c1C	11.3	12.2
CC1CCCC(/C=N/c2ccc(C(=O)O)c(O)c2)=C1O (stereo unspecified)	< 0	135
CN(C)c1ccc(Nc2ncnc3ccc(Br)cc23)cc1	33.3	121
CCOC(=O)c1c(-c2ccccc2)nc2cc(C)ccn12	1.58	147
CC(C)(C)c1ccc(OCCNC(=O)c2nc[nH]n2)cc1	< 0	233
COc1cccc2c1nc(C)c1cc(C)oc12	< 0	121
CCCCN1CC(COc2ccccc2)OC1=O (stereo unspecified)	< 0	195
CC(C)(C)c1nnc(NC(=S)Nc2ccccc2)s1	< 0	258
Cc1cc(C(=O)NCc2cccs2)cs1	9.86	25.9
O=C(Nc1ccc(N2CCN(Cc3ccccc3F)CC2)cc1)c1ccc([N+](=O)[O-])o1	5.12	186
COc1cc(/C=N/NC(=O)c2ccncc2)ccc1OC(C)=O	37.6	273
CC(=O)c1cc(NC(=O)c2ccc(C)cc2)c(=O)oc1/C=C/N(C)C	37.1	115
COc1ccc(/C=C(\NC(=O)c2ccc(C)cc2)C(=O)Nc2c(C)n(C)n(-c3ccccc3)c2=O)cc1	42	50.7
CC1CCC(NC(=O)c2ccc3c(c2)OCO3)CC1 (stereo unspecified)	< 0	218
COc1ccc(-c2c(C)cc3oc(=O)cc(-c4ccccc4)c3c2C)cc1	33.9	154
CCCN=C1C(=O)C2=C(C(O)=C1C)N1CC3NC3[C@@]1(OC)C2COC(N)=O (stereo partly specified)	121	166
CNc1ncnc2c1ncn2[C@@H]1O[C@H](CO)[C@@H](O)[C@H]1O	32.7	39.4

Compound	area under cytotoxicity dose-response curve [1]	area under intracellular growth-inhibition dose-response curve [2]
O=C1CN(C(=O)COC(=O)c2ccc(Br)o2)c2ccccc2N1	23.5	58.2
CCOc1ccc(CCNC(=O)c2ccc3c(=O)[nH]c4c(C(=O)NC(C)C)sc(=S)n4c3c2)cc1	10.1	225
CCCCC(=O)NCc1ccccc1Cl	22.2	262
Cl.N=C(NCCCCCCNC(=N)NC(=N)Nc1ccc(Cl)cc1)NC(=N)Nc1ccc(Cl)cc1	120	43
O=C(NCC1CCCCC1)c1ccco1	106	251
CC(C)CC(=O)NC(=S)Nc1ccc(NC(=O)c2cccs2)cc1	33.2	271
O=C(NC1CCCCCCC1)c1ccc(Br)cc1	< 0	268
CCCNC(=O)OCC12CC3CC(CC(C3)C1)C2	228	237
O=c1c2ccsc2ncn1Cc1ccc(Cl)cc1	15	120
CN(CC(=O)Nc1ccc(OC(F)(F)F)cc1)C(=O)/C=C/c1cc2c(cc1[N+](=O)[O-])OCO2	< 0	135
N#CCCn1cc(/C=N/NC(=O)c2ccncc2)c(-c2ccccc2)n1	< 0	247
C#CCSc1nnc(-c2ccc([N+](=O)[O-])cc2)o1	< 0	246
O=C(N/N=C/C=C\c1ccccc1[N+](=O)[O-])c1ccncc1	5.73	260
NC(=S)N/N=C1\CCOc2ccc(Cl)cc21	31.5	179
CCC(=O)N1CCN(c2ccc(NC(=O)c3ccc([N+](=O)[O-])o3)cc2Cl)CC1	30.3	58.5
CCOC(=O)C(CC)(CC)/C(C)=N/NC(=O)CC#N	20	19.5
COC(=O)c1ccc(COc2ccc(/C=N/NC(N)=S)cc2)o1	50.5	277
CCCN(Cc1nnc(-c2ccccc2Cl)o1)C(=O)c1cc([N+](=O)[O-])cc([N+](=O)[O-])c1	38.7	84
Cl.c1ccc(-c2nnc(CN3CCCCC3)o2)cc1	36	267
CC(NC(=O)c1cccc(F)c1)C1CC2CCC1C2 (stereo unspecified)	< 0	273
CCCCn1c(N)c(N(CCOC)C(=O)c2oc3ccc(Br)cc3c2C)c(=O)[nH]c1=O	7.25	207
C/C(CC(=O)Nc1ccc(C)c(Cl)c1)=N\NC(=O)c1ccncc1	< 0	272
CC[N+](CC)(CC)CCCCOc1ccc2c(c1)C(=O)c1cc(OCCCC[N+](CC)(CC)CC)ccc1-2.[I-]	56.8	92.4
Cc1ccccc1C(=O)N1CCN(c2ccc(NC(=S)NC(=O)c3ccco3)cc2)CC1	63.6	185
Cc1ccc(C(=O)NC2CCCCCC2)o1	< 0	263
CCc1ccc(C(=O)NC2CCCCC2)s1	42.5	239
